Assay results: US20040259815A1, “Anti-proliferative composition” (priority 2001, published 2004)

Tested on: human prostate cancer cell line PC3
Assay: Proliferation of PC3 cells after 4 days exposure (BrdU incorporation and WST-1 assays)
Assay type: cell-based
Details: PC-3, 96 h, component alone, PC3 cells exposed for 4 days
Description: Stock solutions were prepared as follows: Genistein and silymarin were dissolved in ethanol. Daidzein and equol were dissolved in dimethyl sulfoxide (DMSO). Lycopene was dissolved in 0.02M HCl
The PC3 cell line (American Type Culture Collection, Mannassas, USA), a highly resistant prostate cancer cell line originating from a metastasis lesion of bone, was maintained as monolayer cultures in RPMI medium (Gibco, Life technologies BV, Breda, Netherlands) supplemented with 5% FCS (Gibco). The cells were grown mycoplasm free in plastic tissue culture flasks (Falcon, Micronic, Lelystad, Netherlands). Cultures were kept in a 5% CO2 humidified atmosphere, at a temperature of 37° C. Media were replaced every 2 or 3 days, and cells were subcultured at weekly intervals using a 0.05% trypsin and 0.01% EDTA.
The PC3 cells were seeded into flat-bottomed 96-well tissue culture treated plates (Falcon, Micronic, Lelystad, Netherlands) at a density of 16000 cells per well. After 24 h incubation, vehicle controls, test components or combinations of the test components were added to the medium (20 μl added to 200 μl medium in well). The components were tested in combination to determine additional or synergistic effects. PC3 cells were exposed for 4 days.
Cell proliferation was quantified by measuring the incorporation of 5-bromo-2′-deoxyuridine (BrdU) during DNA synthesis and by cleavage of tetrazolium salt (WST-1) in viable cells by mitochondrial dehydrogenases. The calorimetric BrdU (immunoassay) and colorimetric WST-1 assay were performed in accordance with the manufacturer's instructions (Roche Diagnostics Mannheim, Germany). Briefly, BrdU-assay: After the exposure period, the cells were treated with BrdU-labeling solution for 3 hours. After labeling, cells were washed with PBS, fixed for 30 minutes and washed again with PBS. After 90 minutes incubation with the anti-BrdU-POD working solution, the cells were washed 3 times. After addition of the substrate, the reaction was stopped with H2SO4. The absorbance was measured at 450 nm with a reference wavelength at 650 nm. WST-1 assay: After the exposure period, the cells were washed with PBS and treated with WST-1 diluted in medium (1:10). After 3 hours incubation, the absorbance was measured at 450 nm with a reference at 595 nm.

CC(C)=CCC/C(C)=C/C=C/C(C)=C/C=C/C(C)=C/C=C/C=C(C)/C=C/C=C(C)/C=C/C=C(\C)CCC=C(C)C [lycopene]
inhibition at 53 µg/mL (53 μg/ml, stated as not significant, read-out: inhibition of growth of the PC3 cells): 7.3 ± 2.7%

O=c1c(-c2ccc(O)cc2)coc2cc(O)ccc12 [daidzein]
inhibition at 25 µg/mL (25 μg/ml, stated as not significant, read-out: inhibition of growth of the PC3 cells): 10 ± 6%

O=c1c(-c2ccc(O)cc2)coc2cc(O)cc(O)c12 [Genistein, genistein]
inhibition at 27 µg/mL (27 μg/ml, read-out: inhibition of proliferation of human prostate cancer cell line PC3 (mean±s.e.)): 20.2 ± 4.6%

Oc1ccc([C@H]2COc3cc(O)ccc3C2)cc1 [equol]
inhibition at 26 µg/mL (26 μg/ml, read-out: inhibition of proliferation of human prostate cancer cell line PC3 (mean±s.e.)): 30.1 ± 4.4%
